# Legend:
# [1] = Shake-flask aqueous solubility in Britton-Robinson buffer
# [2] = system: Vero E6 cells
smiles,measurement,setting,value
Cn1cc(-c2cc(-c3cc(Cl)cc(OCc4scnc4C(F)(F)F)c3)c(=O)n(-c3cccnc3)c2)c(=O)[nH]c1=O [Compound 21],aqueous solubility (in words),[1],good aqueous solubility
same,cytotoxicity (in words),[2],no cytotoxicity

# From publication PMC8291137 (ACS Medicinal Chemistry Letters, 2021)
